Tested on: NL-RLuc virus (recombinant NL4-3 HIV with Renilla Luciferase gene)
Test: Inhibition of HIV replication (NL-RLuc virus in MT-2 cells, luciferase readout)
Type: cell-based, Human immunodeficiency virus (HIV)
Details: MT2, 120 h
Source text: Inhibition of HIV Replication:
A recombinant NL-RLuc proviral clone was constructed in which a section of the nef gene form NL4-3 was replaced with the Renilla Luciferase gene. This virus is fully infectious and can undergo multiple cycles of replication in cell culture. In addition, the luciferous reporter provides a simple and easy method for quantitating the extent of virus growth and consequently, the antiviral activity of test compounds. The plasmid pNLRLuc contains the proviral NL-Rluc DNA cloned into pUC18 at the PvuII site. The NL-RLuc virus was prepared by transfection of 293T cells with the plasmid pNLRLuc. Transfections were performed using the LipofectAMINE PLUS kit form Invitrogen (Carlsbad, Calif.) according to the manufacturer and the virus generated was titered in MT-2 cells. For susceptibility analyses, the titrated virus was used to infect MT-2 cells in the presence of compound, and after 5 days of incubation, cells were processed and quantitated for virus growth by the amount of expressed luciferase. Assay media was RPMI 1640 supplemented with 10% heat inactivated fetal bovine serum (FBS), 100 units/ml penicillin G/100 units/ml streptomycin, 10 mM HEPES buffer pH 7.55 and 2 mM L-glutamine. The results form at least 2 experiments were used to calculate the EC50 values. Luciferase was quantitated using the Dual Luciferase kit form Promega (Madison, Wis.). Susceptibility of viruses to compounds was determined by incubation in the presence of serial dilutions of the compound. The 50% effective concentration (EC50) was calculated by using the exponential form of the median effect equation where (Fa)=1/[1+(ED50/drug conc.)^m](Johnson V A, Byington R T. Infectivity Assay. In Techniques in HIV Research. ed. Aldovini A, Walker B D. 71-76. New York: Stockton Press. 1990).

| Compound | EC50 |
| --- | --- |
| Cc1nc(C)c([C@H](OC(C)(C)C)C(=O)O)c(N2CCC(C)(C)CC2)c1-c1ccc2c(c1)CCN(c1ccnc(N3CCN(CCO)CC3)n1)C2 [Example 85, (S)-2-(tert-Butoxy)-2-(4-(4,4-dimethylpiperidin-1-yl)-5-(2-(2-(4-(2-hydroxyethyl)piperazin-1-yl)pyrimidin-4-yl)-1,2,3,4-tetrahydroisoquinolin-6-yl)-2,6-dimethylpyridin-3-yl)acetic Acid] | 39 nM |
| Cc1nc(C)c([C@H](OC(C)(C)C)C(=O)O)c(N2CCC(C)(C)CC2)c1-c1ccc2c(c1)CCN(c1ccnc(N3CCCCC3)n1)C2 [Example 22, (2S)-2-(tert-Butoxy)-2-[4-(4,4-dimethylpiperidin-1-yl)-2,6-dimethyl-5-{2-[2-(piperidin-1-yl)pyrimidin-4-yl]-1,2,3,4-tetrahydroisoquinolin-6-yl}pyridin-3-yl]acetic Acid] | 3 nM |
| Cc1nc(CN2CCC(C)(C)CC2)c(-c2ccc3c(c2)CCN(c2ncnc4c2oc2ccccc24)C3)c(N2CCC(C)(C)CC2)c1[C@H](OC(C)(C)C)C(=O)O [Example 161, (S)-2-(5-(2-(Benzofuro[3,2-d]pyrimidin-4-yl)-1,2,3,4-tetrahydroisoquinolin-6-yl)-4-(4,4-dimethylpiperidin-1-yl)-6-((4,4-dimethylpiperidin-1-yl)methyl)-2-methylpyridin-3-yl)-2-(tert-butoxy)acetic Acid] | 1 nM |
| Cc1cccc(Cl)c1CN1CCc2cc(-c3c(NC4CCN(C)CC4)nc(C)c([C@H](OC(C)(C)C)C(=O)O)c3N3CCC(C)(C)CC3)ccc2C1 [Example 8, (S)-2-(tert-Butoxy)-2-(5-(2-(2-chloro-6-methylbenzyl)-1,2,3,4-tetrahydroisoquinolin-6-yl)-4-(4,4-dimethylpiperidin-1-yl)-2-methyl-6-((1-methylpiperidin-4-yl)amino)pyridin-3-yl)acetic Acid] | 2 nM |
| Cc1cc(N2CCOCC2)nc(N2CCc3cc(-c4c(C)nc(C)c([C@H](OC(C)(C)C)C(=O)O)c4N4CCC(C)(C)CC4)ccc3C2)n1 [Example 37, (2S)-2-(tert-Butoxy)-2-[4-(4,4-dimethylpiperidin-1-yl)-2,6-dimethyl-5-{2-[4-methyl-6-(morpholin-4-yl)pyrimidin-2-yl]-1,2,3,4-tetrahydroisoquinolin-6-yl}pyridin-3-yl]acetic Acid] | 1 nM |
| CC1(C)CCN(c2c(-c3ccc4c(c3)CCN(c3nccc(-c5cnccn5)n3)C4)c(N)nc(Cl)c2[C@H](OC(C)(C)C)C(=O)O)CC1 [Example 163, (S)-2-(6-Amino-2-chloro-4-(4,4-dimethylpiperidin-1-yl)-5-(2-(4-(pyrazin-2-yl)pyrimidin-2-yl)-1,2,3,4-tetrahydroisoquinolin-6-yl)pyridin-3-yl)-2-(tert-butoxy)acetic Acid] | 3 nM |
| Cc1cccc(Cl)c1CN1CCc2cc(-c3c(CF)nc(C)c([C@H](OC(C)(C)C)C(=O)O)c3N3CCC(C)(C)CC3)ccc2C1 [Example 158, (S)-2-(tert-Butoxy)-2-(5-(2-(2-chloro-6-methylbenzyl)-1,2,3,4-tetrahydroisoquinolin-6-yl)-4-(4,4-dimethylpiperidin-1-yl)-6-(fluoromethyl)-2-methylpyridin-3-yl)acetic Acid] | 5 nM |
| Cc1nc(C)c([C@H](OC(C)(C)C)C(=O)O)c(N2CCC(C)(C)CC2)c1-c1ccc2c(c1)CCN(c1cc(N3CCOCC3)cnn1)C2 [Example 55, (S)-2-(tert-Butoxy)-2-(4-(4,4-dimethylpiperidin-1-yl)-2,6-dimethyl-5-(2-(5-morpholinopyridazin-3-yl)-1,2,3,4-tetrahydroisoquinolin-6-yl)pyridin-3-yl)acetic Acid] | 21 nM |
| CC1(C)CCN(c2c(-c3ccc4c(c3)CCN(c3ncnc5c3oc3ccccc35)C4)c(N)nc(Cl)c2[C@H](OC(C)(C)C)C(=O)O)CC1 [Example 100, (S)-2-(6-Amino-5-(2-(benzofuro[3,2-d]pyrimidin-4-yl)-1,2,3,4-tetrahydroisoquinolin-6-yl)-2-chloro-4-(4,4-dimethylpiperidin-1-yl)pyridin-3-yl)-2-(tert-butoxy)acetic Acid] | 4 nM |
| Cc1nc(C)c([C@H](OC(C)(C)C)C(=O)O)c(N2CCC(C)(C)CC2)c1-c1ccc2c(c1)CCN(c1nccc(N3C4COCC3COC4)n1)C2 [Example 33, (2S)-2-(tert-Butoxy)-2-[4-(4,4-dimethylpiperidin-1-yl)-5-[2-(4-{3,7-dioxa-9-azabicyclo[3.3.1]nonan-9-yl}pyrimidin-2-yl)-1,2,3,4-tetrahydroisoquinolin-6-yl]-2,6-dimethylpyridin-3-yl]acetic Acid] | 5 nM |
| Cc1nc(CN2CCC3(CCC3)CC2)c(-c2ccc3c(c2)CCN(c2ncnc4c2oc2ccccc24)C3)c(N2CCC(C)(C)CC2)c1[C@H](OC(C)(C)C)C(=O)O [Example 159, (S)-2-(6-(7-Azaspiro[3.5]nonan-7-ylmethyl)-5-(2-(benzofuro[3,2-d]pyrimidin-4-yl)-1,2,3,4-tetrahydroisoquinolin-6-yl)-4-(4,4-dimethylpiperidin-1-yl)-2-methylpyridin-3-yl)-2-(tert-butoxy)acetic Acid] | 1 nM |
| Cc1cccc(Cl)c1CN1CCc2cc(-c3c(CNCCCc4ccccc4)nc(C)c([C@H](OC(C)(C)C)C(=O)O)c3N3CCC(C)(C)CC3)ccc2C1 [Example 154, (S)-2-(tert-Butoxy)-2-(5-(2-(2-chloro-6-methylbenzyl)-1,2,3,4-tetrahydroisoquinolin-6-yl)-4-(4,4-dimethylpiperidin-1-yl)-2-methyl-6-(((3-phenylpropyl)amino)methyl)pyridin-3-yl)acetic Acid] | 97 nM |
| Cc1nc(C)c([C@H](OC(C)(C)C)C(=O)O)c(N2CCC(C)(C)CC2)c1-c1ccc2c(c1)CCN(c1ncnc(N3CCC(O)CC3)n1)C2 [Example 61, (S)-2-(tert-Butoxy)-2-(4-(4,4-dimethylpiperidin-1-yl)-5-(2-(4-(4-hydroxypiperidin-1-yl)-1,3,5-triazin-2-yl)-1,2,3,4-tetrahydroisoquinolin-6-yl)-2,6-dimethylpyridin-3-yl)acetic Acid] | 2 nM |
| CCC(C)(C)O[C@H](C(=O)O)c1c(C)nc(C)c(-c2ccc3c(c2)CCN(Cc2ccccc2C)C3)c1N1CCC(C)(C)CC1 [Example 90, (S)-2-(4-(4,4-Dimethylpiperidin-1-yl)-2,6-dimethyl-5-(2-(2-methylbenzyl)-1,2,3,4-tetrahydroisoquinolin-6-yl)pyridin-3-yl)-2-(tert-pentyloxy)acetic Acid] | 4 nM |
| Cc1nc(C)c([C@H](OC(C)(C)C)C(=O)O)c(N2CCC(C)(C)CC2)c1-c1ccc2c(c1)CCN(c1ncc(F)c(N3CCOCC3)n1)C2 [Example 38, (2S)-2-(tert-Butoxy)-2-[4-(4,4-dimethylpiperidin-1-yl)-5-{2-[5-fluoro-4-(morpholin-4-yl)pyrimidin-2-yl]-1,2,3,4-tetrahydroisoquinolin-6-yl}-2,6-dimethylpyridin-3-yl]acetic Acid] | 3 nM |
| Cc1nc(C)c([C@H](OC(C)(C)C)C(=O)O)c(N2CCC(C)(C)CC2)c1-c1ccc2c(c1)CCN(c1nccc(-c3ccccn3)n1)C2 [Example 109, (S)-2-(tert-Butoxy)-2-(4-(4,4-dimethylpiperidin-1-yl)-2,6-dimethyl-5-(2-(4-(pyridin-2-yl)pyrimidin-2-yl)-1,2,3,4-tetrahydroisoquinolin-6-yl)pyridin-3-yl)acetic Acid] | 1 nM |
| CC1(C)CCN(c2c(-c3ccc4c(c3)CCN(c3nccc(-c5cccnc5)n3)C4)cnc(Cl)c2[C@H](OC(C)(C)C)C(=O)O)CC1 [Example 149, (S)-2-(tert-Butoxy)-2-(2-chloro-4-(4,4-dimethylpiperidin-1-yl)-5-(2-(4-(pyridin-3-yl)pyrimidin-2-yl)-1,2,3,4-tetrahydroisoquinolin-6-yl)pyridin-3-yl)acetic Acid] | 2 nM |
| Cc1nc(C)c([C@H](OC(C)(C)C)C(=O)O)c(N2CCC(C)(C)CC2)c1-c1ccc2c(c1)CCN(c1nccc(N3CCC(C(C)(C)O)CC3)n1)C2 [Example 70, (S)-2-(tert-Butoxy)-2-(4-(4,4-dimethylpiperidin-1-yl)-5-(2-(4-(4-(2-hydroxypropan-2-yl)piperidin-1-yl)pyrimidin-2-yl)-1,2,3,4-tetrahydroisoquinolin-6-yl)-2,6-dimethylpyridin-3-yl)acetic Acid] | 5 nM |
| Cc1nc(C)c([C@H](OC(C)(C)C)C(=O)O)c(N2CCC(C)(C)CC2)c1-c1ccc2c(c1)CCN(c1cncc(N3CCOCC3)n1)C2 [Example 74, (S)-2-(tert-Butoxy)-2-(4-(4,4-dimethylpiperidin-1-yl)-2,6-dimethyl-5-(2-(6-morpholinopyrazin-2-yl)-1,2,3,4-tetrahydroisoquinolin-6-yl)pyridin-3-yl)acetic Acid] | 1 nM |
| Cc1cccc(Cl)c1CN1CCc2cc(-c3c(CNCCCCc4ccccc4)nc(C)c([C@H](OC(C)(C)C)C(=O)O)c3N3CCC(C)(C)CC3)ccc2C1 [Example 155, (S)-2-(tert-Butoxy)-2-(5-(2-(2-chloro-6-methylbenzyl)-1,2,3,4-tetrahydroisoquinolin-6-yl)-4-(4,4-dimethylpiperidin-1-yl)-2-methyl-6-(((4-phenylbutyl)amino)methyl)pyridin-3-yl)acetic Acid] | 55 nM |

— US20200016136A1 (VIIV HEALTHCARE UK (NO. 5) LIMITED, priority 2017, published 2020)
